Assays:
[1] = molecular target: hCA II (Homo sapiens, UniProt P00918); experiment: CA inhibition assay, stopped-flow CO2 hydration
Description: (§1) An SX.18 MV-R Applied Photophysics (Oxford, UK) stopped-flow instrument has been used to assay the catalytic/inhibition of various CA isozymes[51]. […] The inhibition constants were obtained by non-linear least-squares methods using the Cheng–Prusoff equation, as reported earlier[39] and represent the mean from at least three different determinations. All CA isozymes used here were recombinant proteins obtained as reported earlier by our group[27]^,[32]^,[40]^,[52].

[2] = molecular target: hCA IX (Homo sapiens, UniProt Q16790); experiment: CA inhibition assay, stopped-flow CO2 hydration
Description: as §1

[3] = molecular target: hCA VII (Homo sapiens, UniProt P43166); experiment: CA inhibition assay, stopped-flow CO2 hydration
Description: as §1

[4] = molecular target: hCA I (Homo sapiens, UniProt P00915); experiment: CA inhibition assay, stopped-flow CO2 hydration
Chain of hCA I (P00915 whole entry): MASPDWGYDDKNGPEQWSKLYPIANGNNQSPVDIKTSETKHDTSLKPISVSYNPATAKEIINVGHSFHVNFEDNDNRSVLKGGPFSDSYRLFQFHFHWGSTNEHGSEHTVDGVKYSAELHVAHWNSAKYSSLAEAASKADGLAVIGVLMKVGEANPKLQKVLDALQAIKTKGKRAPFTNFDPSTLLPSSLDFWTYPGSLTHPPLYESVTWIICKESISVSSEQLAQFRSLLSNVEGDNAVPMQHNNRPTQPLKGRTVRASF
Description: as §1

Chain of hCA VII (P43166 whole entry): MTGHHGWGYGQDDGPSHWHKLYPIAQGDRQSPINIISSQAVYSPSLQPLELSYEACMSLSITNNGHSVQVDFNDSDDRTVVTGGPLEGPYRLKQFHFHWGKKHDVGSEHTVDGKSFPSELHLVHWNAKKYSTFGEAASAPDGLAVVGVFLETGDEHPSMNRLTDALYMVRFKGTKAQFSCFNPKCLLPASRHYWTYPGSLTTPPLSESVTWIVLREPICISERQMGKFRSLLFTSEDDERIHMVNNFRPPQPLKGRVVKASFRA

melting point [°C]	Ki [1] [µM]	Ki [2] [µM]	Ki [3] [µM]	Ki [4] [µM]	Structure (SMILES)
180 to 182	> 10	2.59	> 10	> 10	O=C(NC(=S)NN1CCOCC1)c1cc2ccccc2oc1=O [e16, N-(morpholinocarbamothioyl)-2-oxo-2H-chromene-3-carboxamide]
123 to 125	> 10	0.136	> 10	> 10	O=C(NC(=S)N1CCOCC1)c1cc2ccccc2oc1=O [e9, N-(morpholine-4-carbonothioyl)-2-oxo-2H-chromene-3-carboxamide]
142 to 143	> 10	0.18	> 10	> 10	O=C(NC(=S)NCCC1=CCCCC1)c1cc2ccccc2oc1=O [e13, N-((2-(cyclohex-1-en-1-yl)ethyl)carbamothioyl)-2-oxo-2H-chromene-3-carboxamide]
136 to 138	> 10	0.224	> 10	> 10	O=C(NC(=S)NCCN1CCOCC1)c1cc2ccccc2oc1=O [e12, N-((2-morpholinoethyl)carbamothioyl)-2-oxo-2H-chromene-3-carboxamide]
131 to 132	> 10	0.108	> 10	> 10	O=C(NC(=S)NCCN1CCCC1)c1cc2ccccc2oc1=O [e11, 2-oxo-N-((2-(pyrrolidin-1-yl)ethyl)carbamothioyl)-2H-chromene-3-carboxamide]
123	> 10	0.286	> 10	> 10	CCCNC(=S)NC(=O)c1cc2ccccc2oc1=O [e2, 2-oxo-N-(propylcarbamothioyl)-2H-chromene-3-carboxamide]
163 to 165					O=C(NC(=S)NCCN1CCNCC1)c1cc2ccccc2oc1=O [e19, 2-oxo-N-((2-(piperazin-1-yl)ethyl)carbamothioyl)-2H-chromene-3-carboxamide]
206	> 10	0.387	> 10	> 10	O=C(NC(=S)NN1CCCCC1)c1cc2ccccc2oc1=O [e18, 2-oxo-N-(piperidin-1-ylcarbamothioyl)-2H-chromene-3-carboxamide]
204	> 10	0.259	> 10	> 10	CN1CCN(NC(=S)NC(=O)c2cc3ccccc3oc2=O)CC1 [e17, N-((4-methylpiperazin-1-yl)carbamothioyl)-2-oxo-2H-chromene-3-carboxamide]

The next lines start with the compound.

Structure (SMILES)	melting point [°C]	Ki [1] [µM]	Ki [2] [µM]	Ki [3] [µM]	Ki [4] [µM]
O=C(NC(=S)NC1CCCCC1)c1cc2ccccc2oc1=O [e5, N-(cyclohexylcarbamothioyl)-2-oxo-2H-chromene-3-carboxamide]		> 10	0.115	> 10	> 10
CC(C)N(C(=S)NC(=O)c1cc2ccccc2oc1=O)C(C)C [e4, N-(diisopropylcarbamothioyl)-2-oxo-2H-chromene-3-carboxamide]	150 to 151	> 10	0.351	> 10	> 10
COc1ccc(CCNC(=S)NC(=O)c2cc3ccccc3oc2=O)cc1OC [e14, N-((3,4-dimethoxyphenethyl)carbamothioyl)-2-oxo-2H-chromene-3-carboxamide]	148 to 149	> 10	0.196	> 10	> 10
O=C(NC(=S)NCc1ccc2c(c1)OCO2)c1cc2ccccc2oc1=O [e15, N-((benzo[d][1,3]dioxol-5-ylmethyl)carbamothioyl)-2-oxo-2H-chromene-3-carboxamide]	188 to 190	> 10	0.184	> 10	> 10
O=C(NC(=S)N1CCCC1)c1cc2ccccc2oc1=O [e6, 2-oxo-N-(pyrrolidine-1-carbonothioyl)-2H-chromene-3-carboxamide]	162 to 163	> 10	0.298	> 10	> 10
CCN(CC)C(=S)NC(=O)c1cc2ccccc2oc1=O [e3, N-(diethylcarbamothioyl)-2-oxo-2H-chromene-3-carboxamide]	143	> 10	0.376	> 10	> 10
CNC(=S)NC(=O)c1cc2ccccc2oc1=O [e1, N-(methylcarbamothioyl)-2-oxo-2H-chromene-3-carboxamide]	146 to 148	> 10	0.323	> 10	> 10
CN(C)CCCNC(=S)NC(=O)c1cc2ccccc2oc1=O [e20, N-((3-(dimethylamino)propyl)carbamothioyl)-2-oxo-2H-chromene-3-carboxamide]	100	> 10	0.182	> 10	> 10
CN1CCN(C(=S)NC(=O)c2cc3ccccc3oc2=O)CC1 [e8, N-(4-methylpiperazine-1-carbonothioyl)-2-oxo-2H-chromene-3-carboxamide]	162 to 164	> 10	0.128	> 10	> 10
O=C(NC(=S)NC1Cc2ccccc2C1)c1cc2ccccc2oc1=O [e10, N-((2,3-dihydro-1H-inden-2-yl)carbamothioyl)-2-oxo-2H-chromene-3-carboxamide]		> 10	0.13	> 10	> 10
O=C(NC(=S)N1CCCCC1)c1cc2ccccc2oc1=O [e7, 2-oxo-N-(piperidine-1-carbonothioyl)-2H-chromene-3-carboxamide]	175 to 176	> 10	0.202	> 10	> 10

— paper PMC6009903, “Synthesis, biological activity and multiscale molecular modeling studies for coumaryl-carboxamide derivatives as selective carbonic anhydrase IX inhibitors” (Journal of Enzyme Inhibition and Medicinal Chemistry, 2017)
